Reference: PubChem BioAssay (NCI)
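A five-concentration, 48-hour dose response in 96-well plates underlies each endpoint, interpolated linearly between surrounding concentrations. TGI: concentration producing complete growth inhibition.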

Legend:
Assay in all cases: inhibition of tumour cell growth, NCI panel, 48 h
[1] = system: IGROV1 ovarian
[2] = system: A549 NSCLC
[3] = system: TK-10 renal
[4] = system: SNB-75 CNS
[5] = system: NCI-H460 lung
[6] = system: OVCAR-3 ovarian
[7] = system: OVCAR-4 ovarian
[8] = system: MDA-MB-231 breast
[9] = system: MDA-N
[10] = system: KM12 colon
[11] = system: HL-60(TB) leukemia
[12] = system: NCI-H522 lung
[13] = system: COLO 205 colon
[14] = system: SF-295 CNS
[15] = system: SK-MEL-2 melanoma
[16] = system: UACC-62 melanoma
[17] = system: CAKI-1 renal
[18] = system: SF-268 CNS
[19] = system: SK-MEL-28 melanoma
[20] = system: UACC-257 melanoma
[21] = system: OVCAR-8 ovarian
[22] = system: OVCAR-5 ovarian
[23] = system: BT-549 breast
[24] = system: DU-145 prostate
[25] = system: NCI/ADR-RES ovarian
[26] = system: SK-MEL-5 melanoma
[27] = system: MCF7 breast
[28] = system: NCI-H226 lung
[29] = system: NCI-H23 lung
[30] = system: K-562 leukemia
[31] = system: SN12C renal
[32] = system: LOX IMVI melanoma
[33] = system: HOP-92 NSCLC
[34] = system: PC-3 prostate
[35] = system: T-47D breast
[36] = system: HS 578T breast
[37] = system: CCRF-CEM leukemia
[38] = system: EKVX NSCLC
[39] = system: MDA-MB-435
[40] = system: SK-OV-3 ovarian
[41] = system: MALME-3M melanoma
[42] = system: SF-539 CNS
[43] = system: HT29 colon
[44] = system: SNB-19 CNS
[45] = system: HCC-2998 colon
[46] = system: 786-0 renal
[47] = system: SW-620 colon
[48] = system: MOLT-4 leukemia
[49] = system: ACHN renal
[50] = system: UO-31 renal
[51] = system: HCT-116 colon
[52] = system: U251 CNS
[53] = system: M14 melanoma
[54] = system: HCT-15 colon
[55] = system: A498 renal
[56] = system: HOP-62 NSCLC
[57] = system: RXF 393 renal
[58] = system: RPMI-8226 leukemia

Measured: TGI

C/C=C1/C[C@@H](C)[C@@](C)(O)C(=O)OCC2=CC[N+]3([O-])CC[C@@H](OC1=O)[C@@H]23 (stereo partly specified)
not listed: [56] | [57] | [58]
> 100 µM: all other assays above

CCOP(=O)(OCC)OC1c2[nH]ccc2-c2cc(C(=O)OC)[nH]c2C1OC (stereo unspecified)
not listed: [28] | [33] | [55] | [58]
> 100 µM: all other assays above

O=c1ccn(C2OC(CN(O)CCC3C(O)C(CO)OC3n3ccc(=O)[nH]c3=O)C(O)C2O)c(=O)[nH]1 (stereo unspecified)
not listed: [11] | [12] | [16] | [19] | [20] | [26] | [37] | [42] | [47] | [48] | [57]
> 100 µM: all other assays above
